Each structure is given as a SMILES string. Where “and” joins values, the source holds several entries; their conditions need not be identical. Equal values may be shown once. A value given as a limit tells only on which side of the number the result lay.

Experimental findings from PubChem BioAssay AID2060621 (Molecular Pharmacology Branch, DTP, NCI, 2025) are described below.

This experiment relates to 324938-238-R-J1-PDC complex spheroids viability. The experiment is described as follows: Anticancer human tumor 324938-238-R-J1-PDC patient-derived bladder carcinoma cell line growth inhibition [CLK]. Conditions: for viability, T/C: stronger effect = lower value. The gist of the method:
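Multi-cell-type spheroids combined patient-derived tumor cells with HUVEC endothelial cells and human mesenchymal stem cells. Paired agents were dosed in half-log steps down from about clinical Cmax, or from 10 microM where Cmax was unknown.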

Setting [1] is: curve of first compound, second compound 0.0316 µM.
Setting [2] is: curve of first compound, second compound 0.1 µM.
Where [3] appears, read: curve of first compound, second compound 0.316 µM.
The mark [4] stands for this setting: curve of first compound, second compound 1 µM.
Setting [5] is: curve of first compound, second compound 3.16 µM.
Where [6] appears, read: curve of first compound, second compound 10 µM.
[7] abbreviates: second compound 0.0316 µM, first compound 0.0316 µM.
Where [8] appears, read: second compound 0.0316 µM, first compound 0.1 µM.
The mark [9] stands for this setting: second compound 0.0316 µM, first compound 0.316 µM.
[10] abbreviates: second compound 0.0316 µM, first compound 1 µM.
[11] abbreviates: second compound 0.0316 µM, first compound 3.16 µM.
The mark [12] stands for this setting: second compound 0.0316 µM, first compound 10 µM.
Where [13] appears, read: second compound 0.1 µM, first compound 0.0316 µM.
Where [14] appears, read: second compound 0.1 µM, first compound 0.1 µM.
[15] abbreviates: second compound 0.1 µM, first compound 0.316 µM.
The mark [16] stands for this setting: second compound 0.1 µM, first compound 1 µM.
Setting [17] is: second compound 0.1 µM, first compound 3.16 µM.
The mark [18] stands for this setting: second compound 0.1 µM, first compound 10 µM.
Setting [19] is: second compound 0.316 µM, first compound 0.0316 µM.
Where [20] appears, read: second compound 0.316 µM, first compound 0.1 µM.
Setting [21] is: second compound 0.316 µM, first compound 0.316 µM.
Where [22] appears, read: second compound 0.316 µM, first compound 1 µM.
The mark [23] stands for this setting: second compound 0.316 µM, first compound 3.16 µM.
[24] abbreviates: second compound 0.316 µM, first compound 10 µM.
Where [25] appears, read: second compound 1 µM, first compound 0.0316 µM.
[26] abbreviates: second compound 1 µM, first compound 0.1 µM.
Setting [27] is: second compound 1 µM, first compound 0.316 µM.
Setting [28] is: second compound 1 µM, first compound 1 µM.
[29] abbreviates: second compound 1 µM, first compound 3.16 µM.
Setting [30] is: second compound 1 µM, first compound 10 µM.
[31] abbreviates: second compound 3.16 µM, first compound 0.0316 µM.
[32] abbreviates: second compound 3.16 µM, first compound 0.1 µM.
Where [33] appears, read: second compound 3.16 µM, first compound 0.316 µM.
Where [34] appears, read: second compound 3.16 µM, first compound 1 µM.
Setting [35] is: second compound 3.16 µM, first compound 3.16 µM.
The mark [36] stands for this setting: second compound 3.16 µM, first compound 10 µM.
Where [37] appears, read: second compound 10 µM, first compound 0.0316 µM.
[38] abbreviates: second compound 10 µM, first compound 0.1 µM.
The mark [39] stands for this setting: second compound 10 µM, first compound 0.316 µM.
The mark [40] stands for this setting: second compound 10 µM, first compound 1 µM.
Setting [41] is: second compound 10 µM, first compound 3.16 µM.
Setting [42] is: second compound 10 µM, first compound 10 µM.
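Also: viability read after seven days of drug exposure.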
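For viability, T/C in this document: 100% = DMSO vehicle control wells.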

For the molecule `C#Cc1c(F)ccc2cc(O)cc(-c3ncc4c(N5CC6CCC(C5)N6)nc(OCC56CCCN5CC(F)C6)nc4c3F)c12` (centres undefined) + CNC(=O)c1ccc(Nc2nc(OC3CCCC3)c3c(-c4ccc5nc(C)oc5c4)c[nH]c3n2)c(OC)c1, the IC50 was 4700 nM under setting [1]; under 31.6 nM under setting [2]; under 31.6 nM under setting [3]; under 31.6 nM under setting [4]; under 31.6 nM under setting [5]; under 31.6 nM under setting [6]. Moreover, the viability, T/C is 73.7% under setting [7]; 87.6% under setting [8]; 71.8% under setting [9]; 69.6% under setting [10]; 57.8% under setting [11]; 35.7% under setting [12]. For the same molecule, the viability, T/C by setting is: under setting [13], 29.6%; under setting [14], 29.6%; under setting [15], 21.5%; under setting [16], 22.8%; under setting [17], 20.5%; under setting [18], 18.6%. In addition, the viability, T/C under setting [19] was 20.1%; the viability, T/C under setting [20] was 18.9%; the viability, T/C under setting [21] was 14.5%; the viability, T/C under setting [22] is 16.9%; the viability, T/C under setting [23] was 12.7%; the viability, T/C under setting [24] was 14.8%. The viability, T/C reads like this: under setting [25], 14.8%; under setting [26], 14.9%; under setting [27], 13.8%; under setting [28], 15.1%; under setting [29], 14.8%; under setting [30], 15.6%. The viability, T/C runs as follows: under setting [31], 13.5%; under setting [32], 16.4%; under setting [33], 14.8%; under setting [34], 16.8%; under setting [35], 12.4%; under setting [36], 12.4%. Besides, the viability, T/C is 15.9% under setting [37]; 18% under setting [38]; 16.2% under setting [39]; 16.8% under setting [40]; 16.2% under setting [41]; 11.5% under setting [42].

`O=C(c1cc(Cc2n[nH]c(=O)c3ccccc23)ccc1F)N1CCN(C(=O)C2CC2)CC1`: the viability, T/C runs as follows: (compound 0.0316 µM) 73.8% and 84.1%; (compound 0.1 µM) 75.1% and 88.4%; (compound 0.316 µM) 71.4% and 72.4%; (compound 1 µM) 83.3% and 73.8%; (compound 3.16 µM) 57% and 60.5%; (compound 10 µM) 31.8% and 31.7%. The IC50 (curve of compound) is 4350 nM and 4650 nM.

On to `COc1c(OCCCN2CCOCC2)ccc2c3n(c(=NC(=O)c4cnc(N)nc4)nc12)CCN3` + CN1CCN(c2cc(C(=O)Nc3cc4cc(-c5cnn(C)c5)ccc4cn3)ccn2)CC1, for which the IC50 reads like this: under setting [1], 17.3 nM; under setting [2], 5.43 nM; under setting [3], under 3.16 nM; under setting [4], under 3.16 nM; under setting [5], under 3.16 nM; under setting [6], under 3.16 nM. The viability, T/C (second compound 0.0316 µM, first compound 0.00316 µM) was 76.1%; the viability, T/C (second compound 0.0316 µM, first compound 0.01 µM) was 59.6%; the viability, T/C under setting [7] is 39.2%; the viability, T/C under setting [8] was 21.2%; the viability, T/C under setting [9] was 7.23%; the viability, T/C under setting [10] is 1.32%. The viability, T/C reads like this: (second compound 0.1 µM, first compound 0.00316 µM) 55.8%; (second compound 0.1 µM, first compound 0.01 µM) 43.5%; under setting [13], 29.5%; under setting [14], 17.6%; under setting [15], 6.5%; under setting [16], 1.24%. For the same molecule, the viability, T/C (second compound 0.316 µM, first compound 0.00316 µM) is 23.9%; the viability, T/C (second compound 0.316 µM, first compound 0.01 µM) is 19.4%; the viability, T/C under setting [19] was 15.1%; the viability, T/C under setting [20] was 8.98%; the viability, T/C under setting [21] is 2.42%; the viability, T/C under setting [22] is 0.55%. Moreover, the viability, T/C was 2.31% (second compound 1 µM, first compound 0.00316 µM); 2.19% (second compound 1 µM, first compound 0.01 µM); 1.42% under setting [25]; 0.41% under setting [26]; 0.11% under setting [27]; 0.13% under setting [28]. The viability, T/C is 0.09% (second compound 3.16 µM, first compound 0.00316 µM); 0.16% (second compound 3.16 µM, first compound 0.01 µM); 0.14% under setting [31]; 0.07% under setting [32]; 0.08% under setting [33]; 0.13% under setting [34]. The viability, T/C runs as follows: (second compound 10 µM, first compound 0.00316 µM) 0.05%; (second compound 10 µM, first compound 0.01 µM) 0.24%; under setting [37], 0.16%; under setting [38], 0.09%; under setting [39], 0.29%; under setting [40], 0.16%.

For the molecule `CC1COCCN1c1cc(C2(S(C)(=N)=O)CC2)nc(-c2ccnc3[nH]ccc23)n1` (centres undefined), the viability, T/C was 85.2% and 72.7% (compound 0.0316 µM); 86.7% and 79% (compound 0.1 µM); 73.1% and 77.7% (compound 0.316 µM); 68.5% and 59.5% (compound 1 µM); 33.5% and 27.7% (compound 3.16 µM); 14.9% and 13% (compound 10 µM). For the same molecule, for the setting “curve of compound”, the IC50 is 1780 nM and 1440 nM.

On to `COc1ccc([C@@H](O)c2cc(-c3ncnc4cc(N5CCOCC5)ccc34)c(F)cc2Cl)nn1`, for which the viability, T/C was 78% and 79.6% (compound 0.0316 µM); 81% and 88.1% (compound 0.1 µM); 68.9% and 55.6% (compound 0.316 µM); 59.9% and 71% (compound 1 µM); 52.4% and 50.7% (compound 3.16 µM); 37.4% and 36.7% (compound 10 µM). The IC50 (curve of compound) is 3300 nM and 3510 nM.

For the molecule `CCCS(=O)(=O)Nc1ccc(F)c(C(=O)c2c[nH]c3ncc(-c4ccc(Cl)cc4)cc23)c1F`, the viability, T/C reads like this: (compound 0.0316 µM) 80.8% and 83%; (compound 0.1 µM) 96.9% and 88.4%; (compound 0.316 µM) 102% and 90.1%; (compound 1 µM) 115% and 101%; (compound 3.16 µM) 111% and 94.9%; (compound 10 µM) 55% and 44.1%. Moreover, the IC50 (curve of compound) was > 10000 nM and 8670 nM.

Regarding `Nc1ccn(C2OC(CO)C(O)C2(F)F)c(=O)n1` (centres undefined) + CNC(=O)c1ccc(Nc2nc(OC3CCCC3)c3c(-c4ccc5nc(C)oc5c4)c[nH]c3n2)c(OC)c1, the IC50 is under 31.6 nM under setting [1]; under 31.6 nM under setting [2]; under 31.6 nM under setting [3]; under 31.6 nM under setting [4]; under 31.6 nM under setting [5]; under 31.6 nM under setting [6]. The viability, T/C is 38.6% under setting [7]; 16.4% under setting [8]; 15.2% under setting [9]; 14% under setting [10]; 10.6% under setting [11]; 8.72% under setting [12]. Moreover, the viability, T/C by setting is: under setting [13], 23%; under setting [14], 18.8%; under setting [15], 12.8%; under setting [16], 14.2%; under setting [17], 10.3%; under setting [18], 7.12%. Further, the viability, T/C by setting is: under setting [19], 17.1%; under setting [20], 14.8%; under setting [21], 12.3%; under setting [22], 12.5%; under setting [23], 8.68%; under setting [24], 7.82%. The viability, T/C by setting is: under setting [25], 15%; under setting [26], 15.4%; under setting [27], 12.2%; under setting [28], 11.6%; under setting [29], 9.63%; under setting [30], 8.24%. Further, the viability, T/C was 17.1% under setting [31]; 13.7% under setting [32]; 13% under setting [33]; 12% under setting [34]; 8.99% under setting [35]; 9.03% under setting [36]. The viability, T/C under setting [37] was 18%; the viability, T/C under setting [38] was 12.9%; the viability, T/C under setting [39] is 14.3%; the viability, T/C under setting [40] is 12.1%; the viability, T/C under setting [41] is 13.4%; the viability, T/C under setting [42] is 8.05%.

A word on the IC50: it is the concentration needed to halve the response being measured. The viability, T/C is the result in the treated group divided by that in the control group, in per cent.
